From patent US20180360766A1, “OVARIAN CANCER SPECIFICALLY TARGETED BIODEGRADABLE AMPHIPHILIC POLYMER, POLYMER VESICLE PREPARED THEREBY AND USE THEREOF” (BRIGHTGENE BIO-MEDICAL TECHNOLOGY CO., LTD., priority 2016, published 2018)
Where a name gives a salt, the structure may show the parent alone.

Tests used:
A2780 cells = test: Toxicity of drug-loaded vesicles to A2780 by MTT; format: cell-based; conditions: Homo sapiens; A2780, CPT.HCl, 4 h co-cultivation + 44 h; transferrin-CLPs with 30% transferrin
[1] = tested on: A2780 subcutaneous ovarian cancer; test: Antitumor effect, A2780 subcutaneous ovarian cancer; conditions: at 10th day
in vivo = conditions: Balb/C nude, mouse, 10 mg/kg

CCc1c2c(nc3ccc(OC(=O)N4CCC(N5CCCCC5)CC4)cc13)-c1cc3c(c(=O)n1C2)COC(=O)[C@]3(O)CC [CPT.HCl, irinotecan hydrochloride]
IC50 (A2780 cells): 4.11 µg/mL
body weight decrease [1]: 18%

COc1cccc2c1C(=O)c1c(O)c3c(c(O)c1C2=O)C[C@@](O)(C(=O)CO)C[C@@H]3O[C@H]1C[C@H](N)[C@H](O)[C@H](C)O1 [DOX.HCl, doxorubicin hydrochloride]
half-life (in vivo): 16.2 min
